# Reference: patent US20120253470A1, “COMPOSITIONS FOR BONE TISSUE REPAIR AND USES THEREOF” (PRESIDENT AND FELLOWS OF HARVARD COLLEGE, priority 2011, published 2012)
# Experiments:
# [1] = system: segmental femur defect; test: Repair of long bone (segmental femur) defect in mice; type: in vivo, C57/BI/6 wild-type mice
# Method: (§1) The model animals used in this investigation were 10 week-old, skeletally mature, male C57/BI/6 wild-type mice. Mice are anesthetized by intramuscular injection with ketamine (7.5 mg/100 g body weight and xylazine (5-10 mg/kg body weight). The skin is shaved with an electric device and then scrubbed with a povidone-iodine scrub (e.g., Betadine®) and 70% alcohol, taking care to scrub from the center of the site toward the periphery. The site is then rinsed with 70% alcohol. At least three alternating preparations of germicidal scrub and rinse are performed. Finally, the area is draped with sterile drapes, which not only help to prevent contaminants from entering the surgical field, but also provide a sterile area on which to lay sterile instruments during surgery.
# Full-thickness flaps are utilized in order to gain access to the femur. A roughly 5 mm length segmental femur defect is created on the C57/BI/6 mice. Once the defect has been created all mice received cell-free grafts. Control mice received no additional treatment, while the second group of mice received treatment with prom-1 #237. Soft tissues are closed with sutures. After the surgery, the animals are monitored until fully alert and monitoring continues thereafter for any issues related to discomfort, pain or infection. […] Medication to control pain is also delivered right after surgery and if detected subsequently. […] The animal is monitored continuously until it regains sternal recumbence and is capable of holding its head up, and is returned to its regular cage only when it is alert, mobile and breathing normally. […]
# (§2) Post-surgical observations include a minimum daily observation, including weekends and holidays, of the condition of the animal and the surgical site. […] Pain/distress is monitored by monitoring the physiological parameters and behavioral responses although distress is more difficult to define and identify than pain. […] The animals are evaluated at day 14 after the creation of the defect to determine the extent of repair and regeneration.
# [2] = system: craniotomy defect of the calvaria; test: Repair of calvarial bone defect in mice; type: in vivo, C57/BI/6 wild-type mice; conditions: prom-1 #237 added to composition containing FDBA
# Method: as §1, with “One of the most common models used to test bone repair methods and compositions is defects in the calvarial bone in a model organism. Mice, rats, and rabbits are all frequently used in this model of flat bone repair. The model” for “The model”, “weight). The calvaria skin is” for “weight). The skin is”
# Full-thickness flaps are utilized in order to gain access to the calvaria. […] After the surgery, the animals are monitored until fully alert and monitoring continues thereafter for any issues related to discomfort, pain or infection. […] Medication to control pain is also delivered right after surgery and if detected subsequently. […] The animal is monitored continuously until it regains sternal recumbence and is capable of holding its head up, and is returned to its regular cage only when it is alert, mobile and breathing normally. […]
# as §2, with “56” for “14”
# [3] = femur defect with cell-free graft, day 14
sequence,measurement,setting,value
DRVQRQTTTVVA (SEQ ID NO: 35) [prom-1 #237],ability of existing mouse cells to colonize the scaffold material and repair a large defect in the long bone,[1]; [3],greatly increased
same,total extent of recovery,[1]; [3],markedly improved
same,new bone growth / callus formation at the defect (FIG. 1B),"[1]; roughly 5 mm segmental femur defect, given in addition to cell-free graft, evaluated at day 14, versus graft only",significant callus formation
same,time to recovery,[2],significantly reduced
same,ability of existing mouse cells to colonize the FDBA scaffold material and repair a large defect in the calvarial flat bone,[2]; day 56,greatly increases
same,total extent of recovery,[2]; day 56,markedly improved
